Literature values in patent US20260232776A1, “COMBINATIONS OF DENDRITIC CELL-BASED VACCINES AND CHECKPOINT INHIBITORS” (Mayo Foundation for Medical Education and Research, priority 2023, published 2026).

System: p44/p42 MAPK or SAPK/JNK

**Q.** For `C[S+]([O-])c1ccc(-c2nc(-c3ccncc3)c(-c3ccc(F)cc3)[nH]2)cc1` (stereo not shown) [SBA203580, adezmapimod], which “activity against other MAPKs such as p44/p42 MAPK or SAPK/JNK” value is on record?
**A.** little activity
